Assay results from ChEMBL document CHEMBL1201862, “PubChem BioAssay data set” (2004).
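1) Cells in 96-well plates. 2) Compound, 48 h, 5 concentrations. 3) Linear interpolation between surrounding doses. 4) Unreached endpoint = highest concentration. GI50 = concentration required for 50% inhibition of growth.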 Activity calls are given as the source filed them. Rule as the data show it: active = GI50 up to about 1.1 µM and inactive = higher.

Tests used:
Test in all cases: NCI-60 cell line screen, 48 h
[1] = test system: 786-0
[2] = test system: A498
[3] = test system: A549
[4] = test system: ACHN
[5] = test system: CAKI-1
[6] = test system: CCRF-CEM
[7] = test system: COLO 205
[8] = test system: DU-145
[9] = test system: EKVX
[10] = test system: HCC 2998
[11] = test system: HCT-116
[12] = test system: HCT-15
[13] = test system: HL-60
[14] = test system: HOP-62
[15] = test system: HOP-92
[16] = test system: HT-29
[17] = test system: Hs-578T
[18] = test system: IGROV-1
[19] = test system: K562
[20] = test system: KM12
[21] = test system: LOX IMVI
[22] = test system: M14
[23] = test system: MDA-MB-231
[24] = test system: MDA-MB-435
[25] = test system: MDA-N
[26] = test system: MOLT-4
[27] = test system: Malme-3M
[28] = test system: NCI-H226
[29] = test system: NCI-H23
[30] = test system: NCI-H460
[31] = test system: NCI-H522
[32] = test system: NCI/ADR-RES
[33] = test system: OVCAR-3
[34] = test system: OVCAR-4
[35] = test system: OVCAR-5
[36] = test system: PC-3
[37] = test system: RPMI-8226
[38] = test system: RXF 393
[39] = test system: SF-268
[40] = test system: SF-295
[41] = test system: SF-539
[42] = test system: SK-MEL-28
[43] = test system: SK-MEL-2
[44] = test system: SK-MEL-5
[45] = test system: SN12C
[46] = test system: SNB-19
[47] = test system: SNB-75
[48] = test system: SR
[49] = test system: SW-620
[50] = test system: T47D
[51] = test system: TK-10
[52] = test system: U-251
[53] = test system: UACC-62
[54] = test system: UO-31
[55] = test system: MCF7
[56] = test system: OVCAR-8
[57] = test system: SK-OV-3
[58] = test system: UACC-257

COc1ccc(/C=C2\CN(C)C/C(=C\c3ccc(OC)cc3)C2=O)cc1
GI50 [1]: 28.6 µM (inactive)
GI50 [2]: > 100 µM (inactive)
GI50 [3]: > 100 µM (inactive)
GI50 [4]: > 100 µM (inactive)
GI50 [5]: > 100 µM (inactive)
GI50 [6]: > 100 µM (inactive)
GI50 [7]: > 100 µM (inactive)
GI50 [8]: > 100 µM (inactive)
GI50 [9]: > 100 µM (inactive)
GI50 [10]: > 100 µM (inactive)
GI50 [11]: > 100 µM (inactive)
GI50 [12]: > 100 µM
GI50 [13]: > 100 µM (inactive)
GI50 [14]: > 100 µM (inactive)
GI50 [15]: > 100 µM (inactive)
GI50 [16]: > 100 µM (inactive)
GI50 [17]: > 100 µM (inactive)
GI50 [18]: 52.2 µM (inactive)
GI50 [19]: > 100 µM (inactive)
GI50 [20]: > 100 µM (inactive)
GI50 [21]: > 100 µM (inactive)
GI50 [22]: > 100 µM (inactive)
GI50 [23]: > 100 µM (inactive)
GI50 [24]: > 100 µM (inactive)
GI50 [25]: > 100 µM (inactive)
GI50 [26]: > 100 µM (inactive)
GI50 [27]: > 100 µM (inactive)
GI50 [28]: > 100 µM (inactive)
GI50 [29]: > 100 µM (inactive)
GI50 [30]: > 100 µM (inactive)
GI50 [31]: > 100 µM (inactive)
GI50 [32]: > 100 µM (inactive)
GI50 [33]: > 100 µM (inactive)
GI50 [34]: > 100 µM (inactive)
GI50 [35]: > 100 µM (inactive)
GI50 [36]: > 100 µM (inactive)
GI50 [37]: > 100 µM (inactive)
GI50 [38]: > 100 µM (inactive)
GI50 [39]: > 100 µM (inactive)
GI50 [40]: > 100 µM (inactive)
GI50 [41]: > 100 µM (inactive)
GI50 [42]: > 100 µM (inactive)
GI50 [43]: > 100 µM (inactive)
GI50 [44]: 32.8 µM (inactive)
GI50 [45]: > 100 µM (inactive)
GI50 [46]: > 100 µM (inactive)
GI50 [47]: > 100 µM (inactive)
GI50 [48]: > 100 µM (inactive)
GI50 [49]: > 100 µM (inactive)
GI50 [50]: > 100 µM (inactive)
GI50 [51]: > 100 µM (inactive)
GI50 [52]: > 100 µM (inactive)
GI50 [53]: > 100 µM (inactive)
GI50 [54]: > 100 µM (inactive)

CC1=NN(c2cccc(Cl)c2)C2(C1=Cc1ccc(O)cc1)C(Cl)C(=O)N2c1nc2ccccc2s1 (stereo not given)
GI50 [1]: 24.3 µM (inactive)
GI50 [2]: 13.6 µM (inactive)
GI50 [4]: 19.7 µM (inactive)
GI50 [5]: 27.1 µM (inactive)
GI50 [6]: 28.6 µM (inactive)
GI50 [8]: 21.5 µM (inactive)
GI50 [9]: 29.4 µM (inactive)
GI50 [10]: 18.8 µM (inactive)
GI50 [11]: 15.9 µM (inactive)
GI50 [12]: 15.5 µM
GI50 [13]: 26.4 µM (inactive)
GI50 [14]: 20.9 µM (inactive)
GI50 [15]: 15.1 µM (inactive)
GI50 [16]: 21.7 µM (inactive)
GI50 [17]: 40.6 µM (inactive)
GI50 [18]: 14.1 µM (inactive)
GI50 [19]: 18.6 µM (inactive)
GI50 [20]: 22.4 µM (inactive)
GI50 [21]: 22.1 µM (inactive)
GI50 [22]: 24.7 µM (inactive)
GI50 [55]: 17.8 µM (inactive)
GI50 [23]: 24.6 µM (inactive)
GI50 [24]: 25.1 µM (inactive)
GI50 [25]: 23.3 µM (inactive)
GI50 [26]: 14.2 µM (inactive)
GI50 [28]: 27.2 µM (inactive)
GI50 [29]: 16 µM (inactive)
GI50 [30]: 24.9 µM (inactive)
GI50 [31]: 22.2 µM (inactive)
GI50 [32]: 21.4 µM (inactive)
GI50 [33]: 26 µM (inactive)
GI50 [34]: 22.6 µM (inactive)
GI50 [35]: 29.4 µM (inactive)
GI50 [56]: 27 µM (inactive)
GI50 [36]: 19.4 µM (inactive)
GI50 [37]: 17.5 µM (inactive)
GI50 [38]: 20.5 µM (inactive)
GI50 [39]: 19.6 µM (inactive)
GI50 [40]: 21.5 µM (inactive)
GI50 [41]: 35.4 µM (inactive)
GI50 [42]: 29 µM (inactive)
GI50 [43]: 20.4 µM (inactive)
GI50 [44]: 16.6 µM (inactive)
GI50 [57]: 22.8 µM (inactive)
GI50 [48]: 19.9 µM (inactive)
GI50 [49]: 15.4 µM (inactive)
GI50 [50]: 15.8 µM (inactive)
GI50 [51]: 37.7 µM (inactive)
GI50 [52]: 20 µM (inactive)
GI50 [58]: 25.5 µM (inactive)
GI50 [54]: 12.9 µM (inactive)
